# Counter-ions that a name gives are not always drawn.
# What was measured:
# [1] = Acute toxicity in mice (LD50, Litchfield-Wilcoxon); conditions: mouse, in vivo, ICR male mice
# Method: Acute toxicity tests were carried out by intraperitoneal or peroral administration of the compound according to the present invention to groups of 10 ICR-strain male mice (weighing 20 g on the average), and each LD50 value was determined by Litchfield-Wilcoxon Method.
# [2] = test system: SRS-A; experiment: Anti-SRS-A effect on guinea pig's ileum (Magnus method)
# Method: The anti-SRS-A effect of the compounds according to the present invention on guinea pig's ileum was measured by Magnus method. […] One minute thereafter, the ileum contraction inhibiting rate (%) was measured with use of 1 ml of 80% ethanol solution of SRS-A (150 mg/ml).
# [3] = test system: Peritoneal cavity cells; experiment: Inhibitory effect on histamine release from sensitized peritoneal cavity cells; format: cell-based, rat (Wistar-strain); design: Released histamine, fluorescence intensity / Residual histamine, fluorescence intensity / Total histamine, fluorescence intensity: unit not given here
# Method: The inhibitory effect on histamine release of the compounds according to the present invention was investigated as follows. […] These cells were suspended in a phosphoric acid buffer solution (containing 0.1% of gelatin) and each 0.5 ml portion of this suspension was taken in a polyethylene tube. 1 ml each of solutions of various concentrations of test compound and 0.5 ml of 200 μg/ml of ovalbumin solution were added therein. They were incubated for 20 minutes at 37° C. to measure the histamine release rate. The amount of histamine was measured by a modified Shore method using fluorescence.
# [4] = test system: Hartley-strain male guinea pig; experiment: Experimental atopic asthma in passively sensitized guinea pigs; format: in vivo; conditions: 50 mg/kg peroral
# Method: [Levine, B. B. et al., J. Immunol., 106, 29(1971)] was injected at a dosage of 0.25 ml/guinea pig into the hearts of groups of Hartley-strain male guinea pig (a group consisting of four), each weighing 250-300 g, to make them passively sensitive. […] The rate of breathing and the ratio of expiration time to inspiration time were calculated from the velocity of breathing. As an antigen to induce the reaction 200 μg/kg of benzylpenicilloyl bovine serum albumin [(BPO)23 -BSA] obtained by the method of Levine et al. [Levine et al.; J. Clin. Invest., 47, 556 (1968)] was injected through a cannula into the jugular vein.
# [5] = test system: homo PCA reaction; experiment: Inhibitory effect on homo PCA reaction in rats; format: in vivo
structure (smiles),measurement,setting,value
"CC(CN1CCCCC1)C(=O)c1ccc2ccccc2c1 (stereo not drawn) [Example 2, 2-methyl-3-piperidino-β-propionaphthone hydrochloride]",LD50,"[1]; ip, intraperitoneal",120 mg/kg
same,LD50,"[1]; po, peroral",370 mg/kg
same,ileum contraction inhibiting rate,[2]; 10^-4 g/ml,76.0 ± 7.23%
same,ileum contraction inhibiting rate,[2]; 10^-5 g/ml,53.7 ± 8.68%
same,ileum contraction inhibiting rate,[2]; 10^-6 g/ml,10.0 ± 8.08%
same,Histamine release rate,[3]; 0.01 mM,38.6%
same,"Released histamine, fluorescence intensity",[3]; 0.01 mM,184
same,"Residual histamine, fluorescence intensity",[3]; 0.01 mM,292
same,"Total histamine, fluorescence intensity",[3]; 0.01 mM,476
same,Net release rate,"[3]; 0.01 mM, release not caused by antigen-antibody reaction deducted",24.7%
same,inhibition at 10 µM,"[3]; Rattus norvegicus, 0.01 mM",24.5%
same,inhibition at 100 µM,"[3]; Rattus norvegicus, 0.1 mM, read-out: Inhibitory effect on histamine release",60%
same,Expiration/inspiration,"[4]; 1 min, 1 h before induction",78.4 ± 9.00%
same,Rate of breathing,"[4]; 1 min, 1 h before induction",120.8 ± 3.19%
same,Volume of breathing,"[4]; 1 min, 1 h before induction",108.2 ± 1.78%
same,Expiration/inspiration,"[4]; 3 min, 1 h before induction",108.7 ± 11.36%
same,Rate of breathing,"[4]; 3 min, 1 h before induction",90.3 ± 3.36%
same,Volume of breathing,"[4]; 3 min, 1 h before induction",86.7 ± 4.14%
same,Expiration/inspiration,"[4]; 6 min, 1 h before induction",99.8 ± 4.30%
same,Rate of breathing,"[4]; 6 min, 1 h before induction",92.2 ± 5.69%
same,Volume of breathing,"[4]; 6 min, 1 h before induction",90.3 ± 8.26%
same,Expiration/inspiration,"[4]; 18 min, 1 h before induction",106.5 ± 5.25%
same,Rate of breathing,"[4]; 18 min, 1 h before induction",91.6 ± 5.71%
same,Volume of breathing,"[4]; 18 min, 1 h before induction",86.0 ± 8.49%
same,Expiration/inspiration,"[4]; 30 min, 1 h before induction",100.3 ± 3.41%
same,Rate of breathing,"[4]; 30 min, 1 h before induction",96.4 ± 4.09%
same,Volume of breathing,"[4]; 30 min, 1 h before induction",93.7 ± 3.75%
same,Expiration/inspiration,"[4]; 60 min, 1 h before induction",97.0 ± 3.47%
same,Rate of breathing,"[4]; 60 min, 1 h before induction",96.2 ± 3.62%
same,Volume of breathing,"[4]; 60 min, 1 h before induction",96.6 ± 4.92%
same,Expiration/inspiration,"[4]; 90 min, 1 h before induction",96.5 ± 3.18%
same,Rate of breathing,"[4]; 90 min, 1 h before induction",94.0 ± 5.23%
same,Volume of breathing,"[4]; 90 min, 1 h before induction",97.6 ± 7.12%
same,Expiration/inspiration,"[4]; 130 min, 1 h before induction",106.4 ± 4.19%
same,Rate of breathing,"[4]; 130 min, 1 h before induction",94.3 ± 6.97%
same,Volume of breathing,"[4]; 130 min, 1 h before induction",92.1 ± 9.25%
same,Expiration/inspiration,"[4]; 180 min, 1 h before induction",108.7 ± 6.81%
same,Rate of breathing,"[4]; 180 min, 1 h before induction",98.2 ± 5.42%
same,Volume of breathing,"[4]; 180 min, 1 h before induction",97.8 ± 7.28%
same,Expiration/inspiration,[4]; before test,100.0 ± 0.00%
same,Rate of breathing,[4]; before test,100.0 ± 0.00%
same,Volume of breathing,[4]; before test,100.0 ± 0.00%
same,"inhibitory effect on homo PCA reaction, dose dependence (in words)",[5],their effects depended on the dose
same,inhibition of homo PCA reaction,[5]; 5 mg/Kg intravenous,62.1%

# Source: patent US4277474A, “Treatment of allergic symptoms with propanone derivatives” (Nippon Zoki Pharmaceutical Co., Ltd., priority 1978, dated 1981)
